Data as given in patent publication US20240034736A1, “HSD17B13 INHIBITORS AND USES THEREOF” (FL2022-001, Inc., priority 2020, published 2024).

Target: Recombinant human HSD17B13 enzyme (Homo sapiens (Human), UniProt Q7Z5P4)
Test: HSD17b13 NAD(P)H-Glo Biochemical Assay
Settings: 50 uM estradiol, 1 mM NAD+; read-out: HSD17β13 IC50
Summary of the method: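 Recombinant human HSD17B13 was pre-incubated with inhibitor for 20 min at RT in 20 mM Tris pH 7.4 with 0.002% Tween-20 and 0.02% BSA. Reaction then ran with 50 uM estradiol and 1 mM NAD+ (final) for 3 h at 37° C. NADH formed was detected by NAD(P)H-Glo luminescence after 1 h at RT.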

Chain of Recombinant human HSD17B13 enzyme (Q7Z5P4 20-300): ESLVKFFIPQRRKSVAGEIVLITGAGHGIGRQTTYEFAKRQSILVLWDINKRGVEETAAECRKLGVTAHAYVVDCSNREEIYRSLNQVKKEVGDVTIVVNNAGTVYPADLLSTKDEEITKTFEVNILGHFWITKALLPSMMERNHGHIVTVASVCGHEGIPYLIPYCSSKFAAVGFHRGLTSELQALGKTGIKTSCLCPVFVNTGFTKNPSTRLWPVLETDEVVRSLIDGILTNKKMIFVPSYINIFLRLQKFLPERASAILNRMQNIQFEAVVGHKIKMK

SMILES	IC50 [nM]
CNC(=O)C1(c2ccc3c(cnn3-c3cc(O)c(F)c(F)c3)c2)CCN(S(C)(=O)=O)CC1 [Compound 29, 4-(1-(3,4-Difluoro-5-hydroxyphenyl)-1H-indazol-5-yl)-N-methyl-1-(methylsulfonyl)piperidine-4-carboxamide]	1000 to 30000
COc1ccccc1-c1ccc2c(cnn2-c2ccc(F)c(O)c2)c1 [Compound 5.20, 2-Fluoro-5-(5-(2-methoxyphenyl)-1H-indazol-1-yl)phenol]	100 to 1000
Oc1cc(-n2ncc3cc(-c4ccc(OC(F)(F)F)cc4Cl)ccc32)ccc1F [Compound 5.06, 5-(5-(2-Chloro-4-(trifluoromethoxy)phenyl)-1H-indazol-1-yl)-2-fluorophenol]	100 to 1000
COc1ccc(-c2ccc3c(cnn3-c3ccc(F)c(O)c3)c2)cc1Cl [Compound 2, 5-(5-(3-Chloro-4-methoxyphenyl)-1H-indazol-1-yl)-2-fluorophenol]	100 to 1000
CN(C)C(=O)c1ccc(-c2ccc3c(cnn3-c3ccc(F)c(O)c3)c2)c(Cl)c1 [Compound 5.10, 3-Chloro-4-(1-(4-fluoro-3-hydroxyphenyl)-1H-indazol-5-yl)-N,N-dimethylbenzamide]	100 to 1000
CS(=O)(=O)N1CCN(c2ccc3c(cnn3-c3cc(O)c(F)c(F)c3)c2)CC1 [Compound 21, 2,3-Difluoro-5-(5-(4-(methylsulfonyl)piperazin-1-yl)-1H-indazol-1-yl)phenol]	100 to 1000
N#Cc1ccccc1-c1ccc2c(cnn2-c2ccc(F)c(O)c2)c1 [Compound 6, 2-(1-(4-Fluoro-3-hydroxyphenyl)-1H-indazol-5-yl)benzonitrile]	100 to 1000
Oc1cc(-n2ncc3cc(-c4cccc(Cl)c4)ccc32)ccc1F [Compound 1.01, 5-(5-(3-Chlorophenyl)-1H-indazol-1-yl)-2-fluorophenol]	100 to 1000
Oc1ccc(-c2ccc3c(cnn3-c3ccc(F)c(O)c3)c2)cc1 [Compound 4.01, 2-Fluoro-5-(5-(4-hydroxyphenyl)-1H-indazol-1-yl)phenol]	100 to 1000

Further lines, results first:

IC50 [nM]	SMILES
100 to 1000	COC1CCN(c2cc3cnn(-c4cc(O)c(F)c(F)c4)c3cc2Cl)CC1 [Compound 21.21, 5-(6-Chloro-5-(4-methoxy-piperidin-1-yl)-1H-indazol-1-yl)-2,3-difluorophenol]
100 to 1000	CS(=O)(=O)N1CCN(c2cc3cnn(-c4cc(C(F)(F)F)cc(O)c4F)c3cn2)CC1 [Compound 19.06, 2-Fluoro-3-(5-(4-(methylsulfonyl)piperazin-1-yl)-1H-pyrazolo[3,4-c]pyridine-1-yl)-5-(trifluoromethyl)phenol]
1000 to 30000	CC1(C)CN(S(C)(=O)=O)CCN1c1ccc2c(cnn2-c2cc(O)c(F)c(C(F)(F)F)c2)c1 [Compound 21.48, 5-(5-(2,2-Dimethyl-4-(methyl-sulfonyl)piperazin-1-yl)-1H-indazol-1-yl)-2-fluoro-3-(trifluoromethyl)phenol]
< 100	Cc1nn(-c2cc(C(F)(F)F)c(F)c(O)c2F)c2cc(F)c(N(C)C3CCOCC3)nc12 [Compound 19.66, 2,6-Difluoro-3-(6-fluoro-3-methyl-5-(methyl(tetrahydro-2H-pyran-4-yl)amino)-1H-pyrazolo[4,3-b]pyridin-1-yl)-5-(trifluoromethyl)phenol]
100 to 1000	CS(=O)(=O)N1CCN(c2cc3cnn(-c4ccc(F)c(O)c4F)c3cn2)CC1 [Compound 19.07, 2,6-Difluoro-3-(5-(4-(methylsulfonyl)piperazin-1-yl)-1H-pyrazolo[3,4-c]pyridine-1-yl)phenol]
1000 to 30000	Cc1ccc(-n2ncc3cc(N4CCN(S(C)(=O)=O)CC4)ncc32)c(F)c1O [Compound 19.42, 2-Fluoro-6-methyl-3-(5-(4-(methylsulfonyl)piperazin-1-yl)-1H-pyrazolo[3,4-c]pyridine-1-yl)phenol]
1000 to 30000	CNC(=O)c1nn(-c2cc(C(F)(F)F)c(F)c(O)c2F)c2ccc(N(C)C3CCOCC3)cc12 [Compound 19.112, 1-(2,4-Difluoro-3-hydroxy-5-(trifluoromethyl)phenyl)-N-methyl-5-(methyl(tetrahydro-2H-pyran-4-yl)amino)-1H-indazole-3-carboxamide]
100 to 1000	Cc1nn(-c2cc(O)c(F)c(C(=O)N(C)C)c2)c2cnc(N3CCOCC34CC4)cc12 [Compound 19.99, 2-Fluoro-3-hydroxy-N,N-dimethyl-5-(3-methyl-5-(7-oxa-4-azaspiro[2.5]octan-4-yl)-1H-pyrazolo[3,4-c]pyridin-1-yl)benzamide]
1000 to 30000	Oc1cc(-n2ncc3cc(N4CCC(O)CC4)ccc32)ccc1F [Compound 20.01, 1-(1-(4-Fluoro-3-hydroxy-phenyl)-1H-indazol-5-yl)-piperidin-4-ol]
< 100	CCN(c1cc2c(C)nn(-c3cc(C(F)(F)F)c(F)c(O)c3F)c2cn1)C1CCOCC1 [Compound 19.54, 3-(5-(Ethyl(tetrahydro-2H-pyran-4-yl)amino)-3-methyl-1H-pyrazolo[3,4-c]pyridine-1-yl)-2,6-difluoro-5-(trifluoromethyl)phenol]
100 to 1000	Cc1nn(-c2cc(O)c(F)c(C(C)(F)F)c2)c2cnc(N3CCOCC34CC4)cc12 [Compound 19.98, 3-(1,1-Difluoroethyl)-2-fluoro-5-(3-methyl-5-(7-oxa-4-azaspiro[2.5]octan-4-yl)-1H-pyrazolo[3,4-c]pyridin-1-yl)phenol]
1000 to 30000	CS(=O)(=O)N1CCN(c2ccc3c(cnn3-c3nccc(O)c3F)c2)CC1 [Compound 28.06, 3-Fluoro-2-(5-(4-(methyl-sulfonyl)piperazin-1-yl)-1H-indazol-1-yl)pyridin-4-ol]
100 to 1000	Cc1nn(-c2cc(C(F)(F)F)c(F)c(O)c2F)c2ccc(N(C)C3CCOCC3)c(F)c12 [Compound 19.101, 2,6-Difluoro-3-(4-fluoro-3-methyl-5-(methyl(tetrahydro-2H-pyran-4-yl)amino)-1H-indazol-1-yl)-5-(trifluoromethyl)phenol]
< 100	Cc1nn(-c2cc(C(F)(F)F)c(F)c(O)c2F)c2ccc(N(C)C3CCOCC3)nc12 [Compound 19.49, 2,6-Difluoro-3-(3-methyl-5-(methyl(tetrahydro-2H-pyran-4-yl)amino)-1H-pyrazolo[4,3-b]pyridine-1-yl)-5-(trifluoromethyl)phenol]
100 to 1000	Cc1nn(-c2cc(O)c(F)cc2C#N)c2cnc(N(C)C3CCOCC3)cc12 [Compound 19.62, 5-Fluoro-4-hydroxy-2-(3-methyl-5-(methyl(tetrahydro-2H-pyran-4-yl)amino)-1H-pyrazolo[3,4-c]pyridin-1-yl)benzonitrile]
100 to 1000	CCc1nn(-c2cc(C(F)(F)F)c(F)c(O)c2F)c2ccc(N(C)C3CCOCC3)cc12 [Compound 19.73, 3-(3-Ethyl-5-(methyl(tetrahydro-2H-pyran-4-yl)amino)-1H-indazol-1-yl)-2,6-difluoro-5-(trifluoromethyl)phenol]
100 to 1000	CS(=O)(=O)N1CCN(c2cc3cnn(-c4cc(O)c(F)c(F)c4)c3cc2C#N)CC1 [Compound 21.23, 1-(3,4-Difluoro-5-hydroxy-phenyl)-5-(4-(methylsulfonyl)-piperazin-1-yl)-1H-indazole-6-carbonitrile]
100 to 1000	CS(=O)(=O)N1CC2(CN(c3ccc4c(cnn4-c4cc(O)c(F)c(F)c4)c3)C2)C1 [Compound 21.27, 2,3-Difluoro-5-(5-(6-(methyl-sulfonyl)-2,6-diazaspiro[3.3]-heptan-2-yl)-1H-indazol-1-yl)phenol]
